Assay results as given in paper PMC3961306, “Comparison of the Cancer Gene Targeting and Biochemical Selectivities of All Targeted Kinase Inhibitors Approved for Clinical Use” (PLoS ONE, 2014).
pIC50: −log10 of the molar value. Where two headings read alike, the source gives them in different places.

Tests used:
[1] = system: forty-four human cancer cell lines; assay: Cell proliferation assay (ATPlite, 72 hours) in the 44 cell line Oncolines panel; format: cell-based; conditions: Homo sapiens
[2] = molecular target: T1, panel of more than 300 wild-type and mutant kinases (313 kinase panel) (Homo sapiens, UniProt P51955); assay: Kinase profiling in a biochemical assay panel (mobility shift assays and ELISA), %-inhibition at 1 μM; selectivity entropy; conditions: kinase NEK2; 1 μM
T1 sequence (P51955 1-445): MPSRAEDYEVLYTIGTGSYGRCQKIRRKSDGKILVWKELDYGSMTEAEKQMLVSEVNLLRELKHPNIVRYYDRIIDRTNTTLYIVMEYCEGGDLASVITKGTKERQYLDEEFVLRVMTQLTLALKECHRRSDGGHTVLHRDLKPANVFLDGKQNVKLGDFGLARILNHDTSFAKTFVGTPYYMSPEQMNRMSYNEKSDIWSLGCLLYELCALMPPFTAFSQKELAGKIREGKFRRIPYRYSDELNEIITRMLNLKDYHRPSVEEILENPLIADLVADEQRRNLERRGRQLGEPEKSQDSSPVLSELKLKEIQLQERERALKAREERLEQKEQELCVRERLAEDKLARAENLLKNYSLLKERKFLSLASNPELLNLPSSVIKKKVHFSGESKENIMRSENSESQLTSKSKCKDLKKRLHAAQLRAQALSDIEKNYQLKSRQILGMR

[3] = molecular target: panel of more than 300 wild-type and mutant kinases (313 kinase panel) (Homo sapiens, UniProt Q9NQU5); assay: as above; conditions: kinase PAK6; 1 μM
[4] = molecular target: panel of more than 300 wild-type and mutant kinases (313 kinase panel) (Homo sapiens, UniProt P11362, V561M); assay: as above; conditions: kinase FGFR1(V561M); compound at 1 μM
[5] = molecular target: panel of more than 300 wild-type and mutant kinases (313 kinase panel) (Homo sapiens, UniProt P22694); assay: as above; conditions: kinase PKACβ; 1 μM
[6] = molecular target: T2, panel of more than 300 wild-type and mutant kinases (313 kinase panel) (Homo sapiens, UniProt P30530); assay: as above; conditions: kinase AXL; 1 μM compound
T2 sequence (P30530 26-894): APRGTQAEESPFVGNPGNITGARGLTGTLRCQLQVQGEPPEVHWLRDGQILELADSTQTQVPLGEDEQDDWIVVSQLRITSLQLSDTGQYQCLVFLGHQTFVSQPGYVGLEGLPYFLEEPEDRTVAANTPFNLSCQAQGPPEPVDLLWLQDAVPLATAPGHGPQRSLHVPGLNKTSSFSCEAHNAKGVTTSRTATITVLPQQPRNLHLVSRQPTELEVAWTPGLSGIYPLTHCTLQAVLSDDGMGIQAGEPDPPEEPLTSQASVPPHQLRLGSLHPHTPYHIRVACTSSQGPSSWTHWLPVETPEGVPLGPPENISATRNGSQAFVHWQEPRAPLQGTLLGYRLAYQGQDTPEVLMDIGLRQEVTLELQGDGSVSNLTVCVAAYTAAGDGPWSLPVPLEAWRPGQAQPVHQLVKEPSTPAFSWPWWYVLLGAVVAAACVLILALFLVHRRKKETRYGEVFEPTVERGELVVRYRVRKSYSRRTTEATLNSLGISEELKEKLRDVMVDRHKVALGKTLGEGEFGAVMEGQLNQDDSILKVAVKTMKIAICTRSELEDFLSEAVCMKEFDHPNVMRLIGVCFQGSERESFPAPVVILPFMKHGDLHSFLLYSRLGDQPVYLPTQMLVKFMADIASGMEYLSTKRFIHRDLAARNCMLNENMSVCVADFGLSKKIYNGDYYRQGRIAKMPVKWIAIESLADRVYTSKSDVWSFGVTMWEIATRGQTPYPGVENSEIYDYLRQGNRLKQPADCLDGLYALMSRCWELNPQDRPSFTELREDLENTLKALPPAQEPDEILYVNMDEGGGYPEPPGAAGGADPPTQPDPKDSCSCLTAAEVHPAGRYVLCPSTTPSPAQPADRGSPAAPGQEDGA

[7] = A 172, read-out: cell panel IC50, A-172
[8] = A498, read-out: cell panel IC50, A-498
[9] = A549, read-out: cell panel IC50, A-549
[10] = A-427, read-out: cell panel IC50, A-427
[11] = AU565, read-out: cell panel IC50, AU-565
[12] = BT-549, read-out: cell panel IC50, BT-549
[13] = HCT-116, read-out: cell panel IC50, HCT-116
[14] = K562, read-out: cell panel IC50, K-562
[15] = LS174T, read-out: cell panel IC50, LS 174T

CO[C@H]1C[C@@H]2CC[C@@H](C)[C@@](O)(O2)C(=O)C(=O)N2CCCC[C@H]2C(=O)O[C@H]([C@H](C)C[C@@H]2CC[C@@H](OC(=O)C(C)(CO)CO)[C@H](OC)C2)CC(=O)[C@H](C)/C=C(\C)[C@@H](O)[C@@H](OC)C(=O)[C@H](C)C[C@H](C)/C=C/C=C/C=C/1C [temsirolimus]
pIC50 [1, 7]: 8.00
pIC50 ([1]; A204, cell line A-204, read-out: cell panel IC50, A-204): 5.61
pIC50 [1, 8]: 5.82
pIC50 [1, 9]: 6.13
pIC50 ([1]; A-375, cell line A375, read-out: cell panel IC50, A375): < 5.50
pIC50 [1, 10]: 7.02
pIC50 [1, 11]: 7.20
pIC50 [1, 12]: 7.77
pIC50 [1, 13]: 6.60
pIC50 [1, 14]: < 5.50
pIC50 [1, 15]: 7.06
pIC50 ([1]; SHP77, cell line SHP-77, read-out: cell panel IC50, SHP-77): < 5.50
pIC50 ([1]; SW-620, cell line SW620, read-out: cell panel IC50, SW620): < 5.50
pIC50 ([1]; U2OS, cell line U-2 OS, read-out: cell panel IC50, U-2 OS): 7.39
pIC50 ([1]; cell line J82, read-out: cell panel IC50, J82): 7.59
pIC50 ([1]; cell line PA-1, read-out: cell panel IC50, PA-1): 5.88
pIC50 ([1]; cell line SJCRH30, read-out: cell panel IC50, SJCRH30): < 5.50
pIC50 ([1]; cell line SR, read-out: cell panel IC50, SR): 8.10
pIC50 ([1]; U-87 MG cell line, ATPlite, 72 hours, read-out: IC50 in cell proliferation assay (table S5 cellpanel data)): 6.34
pIC50 ([1]; cell line 769-P, read-out: cell panel IC50, 769-P): 8.05
pIC50 ([1]; cell line 786-0, read-out: cell panel IC50, 786-0): 6.37
pIC50 ([1]; cell line ACHN, read-out: cell panel IC50, ACHN): < 5.50
pIC50 ([1]; cell line AN3 CA, read-out: cell panel IC50, AN3 CA): 6.10
pIC50 ([1]; cell line BT-20, read-out: cell panel IC50, BT-20): 7.48
pIC50 ([1]; cell line BxPC-3, read-out: cell panel IC50, BxPC-3): < 5.50
pIC50 ([1]; cell line C-33 A, read-out: cell panel IC50, C-33 A): 7.47
pIC50 ([1]; cell line CAL 27, read-out: cell panel IC50, CAL 27): < 5.50
pIC50 ([1]; cell line CCRF-CEM, read-out: cell panel IC50, CCRF-CEM): 7.82
pIC50 ([1]; cell line DLD-1, read-out: cell panel IC50, DLD-1): 6.90
pIC50 ([1]; cell line FaDu, read-out: cell panel IC50, FaDu): < 5.50
pIC50 ([1]; cell line HCT-15, read-out: cell panel IC50, HCT-15): 5.61
pIC50 ([1]; cell line Hs 578T, read-out: cell panel IC50, Hs 578T): 7.00
pIC50 ([1]; cell line Jurkat E6.1, read-out: cell panel IC50, Jurkat E6.1): 6.91
pIC50 ([1]; cell line LoVo, read-out: cell panel IC50, LoVo): < 5.50
pIC50 ([1]; cell line MG-63, read-out: cell panel IC50, MG-63): 5.65
pIC50 ([1]; cell line MOLT-4, read-out: cell panel IC50, MOLT-4): 7.68
pIC50 ([1]; cell line MeWo, read-out: cell panel IC50, MeWo): 7.72
pIC50 ([1]; cell line NCI-H82, read-out: cell panel IC50, NCI-H82): < 5.50
pIC50 ([1]; cell line NCI-H460, read-out: cell panel IC50, NCI-H460): 7.33
pIC50 ([1]; cell line OVCAR-3, read-out: cell panel IC50, OVCAR-3): < 5.50
pIC50 ([1]; cell line RPMI-7951, read-out: cell panel IC50, RPMI-7951): 8.92
pIC50 ([1]; cell line SK-N-AS, read-out: cell panel IC50, SK-N-AS): 6.62
pIC50 ([1]; cell line SW48, read-out: cell panel IC50, SW48): < 5.50
pIC50 ([1]; cell line SW480, read-out: cell panel IC50, SW480): 7.74
%-inhibition of NEK2 [2]: -5%
%-inhibition of PAK6 [3]: -6.47%
%-inhibition of FGFR1(V561M) [4]: -9%
%-inhibition of PKACβ [5]: -6%
%-inhibition, AXL [6]: -1.78%

C[C@@H](Oc1cc(-c2cnn(C3CCNCC3)c2)cnc1N)c1c(Cl)ccc(F)c1Cl [crizotinib]
pIC50 ([1]; 4-4 cell, read-out: cell panel IC50, J82): 5.28
pIC50 ([1]; 4-4 cell, read-out: cell panel IC50, PA-1): 6.05
pIC50 ([1]; 4-4 cell, read-out: cell panel IC50, SJCRH30): 5.96
pIC50 ([1]; 4-4 cell, read-out: cell panel IC50, SR): 7.36
pIC50 ([1]; 769-P, read-out: cell panel IC50, 769-P): 5.53
pIC50 ([1]; 786-0, read-out: cell panel IC50, 786-0): 5.41
pIC50 [1, 7]: 5.77
pIC50 ([1]; A204, read-out: cell panel IC50, A-204): 5.61
pIC50 [1, 8]: 5.65
pIC50 [1, 9]: 5.93
pIC50 ([1]; A-375, read-out: cell panel IC50, A375): 5.97
pIC50 [1, 10]: 6.17
pIC50 ([1]; ACHN, read-out: cell panel IC50, ACHN): 5.65
pIC50 ([1]; AN3-CA, read-out: cell panel IC50, AN3 CA): 5.77
pIC50 [1, 11]: 5.11
pIC50 ([1]; BT-20, read-out: cell panel IC50, BT-20): 4.89
pIC50 [1, 12]: 5.31
pIC50 ([1]; BXPC-3, read-out: cell panel IC50, BxPC-3): 5.86
pIC50 ([1]; C-33-A, read-out: cell panel IC50, C-33 A): 5.52
pIC50 ([1]; CAL-27, read-out: cell panel IC50, CAL 27): 5.74
pIC50 ([1]; CCRF-CEM, read-out: cell panel IC50, CCRF-CEM): 6.25
pIC50 ([1]; DLD-1, read-out: cell panel IC50, DLD-1): 5.52
pIC50 ([1]; FaDu, read-out: cell panel IC50, FaDu): 5.27
pIC50 ([1]; HCT-15, read-out: cell panel IC50, HCT-15): 5.32
pIC50 [1, 13]: 5.77
pIC50 ([1]; Hs-578T, read-out: cell panel IC50, Hs 578T): 5.56
pIC50 ([1]; Jurkat E6.1, read-out: cell panel IC50, Jurkat E6.1): 5.95
pIC50 [1, 14]: 6.60
pIC50 [1, 15]: 6.07
pIC50 ([1]; LoVo, read-out: cell panel IC50, LoVo): 6.18
pIC50 ([1]; MG-63, read-out: cell panel IC50, MG-63): 5.76
pIC50 ([1]; MOLT-4, read-out: cell panel IC50, MOLT-4): 6.46
pIC50 ([1]; NCI-H82, read-out: cell panel IC50, NCI-H82): 6.07
pIC50 ([1]; NCI-H460, read-out: cell panel IC50, NCI-H460): 5.94
pIC50 ([1]; OVCAR-3, read-out: cell panel IC50, OVCAR-3): 5.34
pIC50 ([1]; RPMI-7951, read-out: cell panel IC50, RPMI-7951): 5.82
pIC50 ([1]; SHP77, read-out: cell panel IC50, SHP-77): 5.51
pIC50 ([1]; SK-N-AS, read-out: cell panel IC50, SK-N-AS): 5.88
pIC50 ([1]; SW48, read-out: cell panel IC50, SW48): 5.71
pIC50 ([1]; SW480, read-out: cell panel IC50, SW480): 5.44
pIC50 ([1]; SW-620, read-out: cell panel IC50, SW620): 5.88
pIC50 ([1]; U2OS, read-out: cell panel IC50, U-2 OS): 5.70
pIC50 ([1]; U-87 MG, 72 h, read-out: IC50 in cell proliferation assay (table S5 cellpanel data)): 5.41
%-inhibition of NEK2 [2]: -2.69%
%-inhibition of PAK6 [3]: 3%
%-inhibition of FGFR1(V561M) [4]: 26%
%-inhibition of PKACβ [5]: -2.3%
